Data published in the supplement of paper PMC10307832.

What was measured:
Test in all cases: relative viability (nuclei count vs DMSO), 5 days (fraction); higher = more cells survive
KIN001-266 + Pemetrexed = compound: CCN1CCC(CC1)N2C=C(N=N2)CNC3=CC4=C(C(=CN=C4C(=C3)Cl)C#N)NC5=CC(=C(C=C5)F)Cl [KIN001-266] + Nc1nc2[nH]cc(CCc3ccc(C(=O)N[C@@H](CCC(=O)O)C(=O)O)cc3)c2c(=O)[nH]1 [Pemetrexed] (partner 0.2 µM)
In short: (§1)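 Dosing by pin tool came one day after lung cancer cell lines were seeded in 1536-well plates, using either one drug or a fixed anchor-drug dose plus five library-drug doses (not always all listed) in √10 steps. After 5 days, nuclei were counted on 4× images. Relative viability is treated-well nuclei count divided by vehicle-well nuclei count, and values are medians of duplicate plates.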

KIN001-266 + Palbociclib = compound: CCN1CCC(CC1)N2C=C(N=N2)CNC3=CC4=C(C(=CN=C4C(=C3)Cl)C#N)NC5=CC(=C(C=C5)F)Cl [KIN001-266] + CC(=O)c1c(C)c2cnc(Nc3ccc(N4CCNCC4)cn3)nc2n(C2CCCC2)c1=O [Palbociclib] (partner 0.5 µM)
In short: as §1

KIN001-266 + Olaparib = compound: CCN1CCC(CC1)N2C=C(N=N2)CNC3=CC4=C(C(=CN=C4C(=C3)Cl)C#N)NC5=CC(=C(C=C5)F)Cl [KIN001-266] + O=C(c1cc(Cc2n[nH]c(=O)c3ccccc23)ccc1F)N1CCN(C(=O)C2CC2)CC1 [Olaparib] (partner 8 µM)
In short: as §1

KIN001-266 + Alpelisib = compound: CCN1CCC(CC1)N2C=C(N=N2)CNC3=CC4=C(C(=CN=C4C(=C3)Cl)C#N)NC5=CC(=C(C=C5)F)Cl [KIN001-266] + Cc1nc(NC(=O)N2CCC[C@H]2C(N)=O)sc1-c1ccnc(C(C)(C)C(F)(F)F)c1 [Alpelisib] (partner 2 µM)
In short: as §1

UMC-11
relative viability (KIN001-266 + Pemetrexed; first compound 0.08 µM): 0.773
relative viability (KIN001-266 + Pemetrexed; first compound 0.253 µM): 0.728
relative viability (KIN001-266 + Pemetrexed; first compound 0.8 µM): 0.757
relative viability (KIN001-266 + Pemetrexed; first compound 2.53 µM): 0.757
relative viability (KIN001-266 + Pemetrexed; first compound 8 µM): 0.707
relative viability (KIN001-266 + Palbociclib; first compound 0.08 µM): 0.293
relative viability (KIN001-266 + Palbociclib; first compound 0.253 µM): 0.338
relative viability (KIN001-266 + Palbociclib; first compound 0.8 µM): 0.304
relative viability (KIN001-266 + Palbociclib; first compound 2.53 µM): 0.329
relative viability (KIN001-266 + Palbociclib; first compound 8 µM): 0.391
relative viability (KIN001-266 + Olaparib; first compound 0.08 µM): 0.351
relative viability (KIN001-266 + Olaparib; first compound 0.253 µM): 0.515
relative viability (KIN001-266 + Olaparib; first compound 0.8 µM): 0.398
relative viability (KIN001-266 + Olaparib; first compound 2.53 µM): 0.31
relative viability (KIN001-266 + Olaparib; first compound 8 µM): 0.319
relative viability (KIN001-266 + Alpelisib; first compound 0.08 µM): 0.927
relative viability (KIN001-266 + Alpelisib; first compound 0.253 µM): 0.931
relative viability (KIN001-266 + Alpelisib; first compound 0.8 µM): 1.11
relative viability (KIN001-266 + Alpelisib; first compound 2.53 µM): 0.952
relative viability (KIN001-266 + Alpelisib; first compound 8 µM): 0.604
